Assay results as given in patent publication US5977104A, “Use of NK-1 receptor antagonists for treating bipolar disorders” (Merck Sharp & Dohme Ltd., priority 1996, dated 1999).
Like-named read-outs stand apart in the source and are kept apart here.

What was measured:
[1] = system: foot tapping in gerbils induced by NK-1 receptor agonist GR73632; assay: Gerbil foot-tapping (Assay 2), induced by central infusion of NK-1 receptor agonist GR73632; format: in vivo, Mongolian gerbil; conditions: Meriones unguiculatus, iv
From the text: CNS-penetrant NK-1 receptor antagonists for use in the present invention can be identified by their ability to inhibit foot tapping in gerbils induced by anxiogenic agents (such as pentagastrin) or central infusion of NK-1 receptor agonists such as GR73632, or caused by aversive stimulation such as foot shock or single housing, based on the method of Rupniak & Williams, Eur. J. Pharmacol., 1994, 265, 179.
Male or female Mongolian gerbils (35-70 g) are anaesthetised by inhalation of an isoflurane/oxygen mixture to permit exposure of the jugular vein in order to permit administration of test compounds or vehicle in an injection volume of 5ml/kg i.v. Alternatively, test compounds may be administered orally or by subcutaneous or intraperitoneal routes. A skin incision is then made in the midline of the scalp to expose the skull. […]

[2] = system: cisplatin-induced emesis in ferrets; assay: Ferret emesis (Assay 3), cisplatin-induced; format: in vivo; conditions: Mustela putorius, po, 4 h; p.o., cisplatin 10 mg/kg i.v. at 60 minutes following dosing; read-out: ferret emesis: ID90
Protocol: Ten minutes later they are fed with approximately 100 g of tinned cat food. At 60 minutes following oral dosing, cisplatin (10 mg/kg) is given i.v. via a jugular vein catheter inserted under a brief period of halothane anaesthesia. The catheter is then removed, the jugular vein ligated and the skin incision closed. The ferrets recover rapidly from the anaesthetic and are mobile within 10-20 minutes. The animals are observed continuously during recovery from the anaesthetic and for 4 hours following the cisplatin injection, after which time the animals are killed humanely. The numbers of retches and vomits occurring during the 4 hours after cisplatin administration are recorded by trained observers.

[3] = system: separation-induced vocalisations by guinea-pig pups; assay: Separation-induced vocalisation in guinea-pig pups (Assay 4); format: in vivo; conditions: Cavia porcellus, po, 4 hr. pretreatment; read-out: guinea-pig vocalisation (4 hr. pretreatment): ID50
Protocol: Male and female guinea-pigs pups are housed in family groups with their mothers and littermates throughout the study. Experiments are commenced after weaning when the pups are 2 weeks old. Before entering an experiment, the pups are screened to ensure that a vigorous vocalisation response is reproducibly elicited following maternal separation. The pups are placed individually in an observation cage (55 cm×39 cm×19 cm) in a room physically isolated from the home cage for 15 minutes and the duration of vocalisation during this baseline period is recorded. […] On test days each pup receives an oral dose or an s.c. or i.p. injection of test compound or vehicle and is then immediately returned to the home cage with its mother and siblings for 30 to 60 minutes (or for up to 4 hours following an oral dose, dependent upon the oral pharmacokinetics of the test compound) before social isolation for 15 minutes as described above. […] Between 6 and 8 animals receive each test compound at each dose tested.

Molecule OC[C@@H](O[C@H]1OCCN(Cc2nc[nH]n2)[C@H]1c1ccc(F)cc1)c1cc(C(F)(F)F)cc(C(F)(F)F)c1 [2-(R)-(1-(S)-(3,5-bis(trifluoromethyl)phenyl)-2-hydroxyethoxy)-3-(S) -(4-fluorophenyl)-4-(1,2,4-triazol-3-yl)methylmorpholine] has an ED50 ([1]; 5 min, i.v., immediately prior to GR73632 challenge (5 mins.), read-out: gerbil foot-tapping (5 mins.): ID50) of 0.38 mg/kg, an ED50 ([1]; 24 hours prior to central NK1 agonist challenge, read-out: gerbil foot-tapping (24 hrs.): ID50) of 2.2 mg/kg and an ED90 [2] of 1 mg/kg. For the same molecule, the ED50 [3] was 0.91 mg/kg.
